The results in this text go back to publication PMC3842960, “Natural Stilbenoids Isolated from Grapevine Exhibiting Inhibitory Effects against HIV-1 Integrase and Eukaryote MOS1 Transposase In Vitro Activities” (PLoS ONE, 2013).

One assay concerns the target T1, Mos1 transposase (MOS1) (Drosophila mauritiana, UniProt Q7JQ07).
T1 construct: involving the full-length Mos1 transposase (MOS1) was recently solved; made in house
Kind of assay: MOS1 in vitro excision assay. The format is biochemical, D. mauritiana. The conditions noted are these: for inhibition at 25 µM: DMSO control as reference, read-out: inhibition of in vitro excision reaction; for IC50: concentration range, sigmoid dose-response fit. The method, then:
(§1) Basic excision reaction mixtures contained 10 mM Tris-HCl (pH 9), 50 mM NaCl, 20 mM MgCl2, 0.5 mM EDTA, 0.5 mM DTT, 100 ng BSA, 600 ng of super-coiled pBC-3T3, and 80 nM MBP-MOS1 (added last) in a volume of 20 µl. Molecules (25 or 10 µM, as specified) or DMSO (2%) were added to the reaction mixtures before the transposase. The reactions were allowed to proceed at 30°C for 30 min before 2 µl of stop solution (loading buffer) were added. The reaction mixtures were then incubated at 65°C for 10 min. Each reaction was analysed by overnight electrophoresis at 2.7 V/cm on a TAE-buffered 1% agarose gel with ethidium bromide (0.3 mg/ml). After electrophoresis, the gel was photographed on a transilluminator. ImageGauge 4.22 software (Fujifilm) was used to quantify the bands. Each condition was tested at least twice.
The ability of the selected molecules to inhibit excision was tested in vitro using the pBC-3T3 plasmid as the transposon donor. MOS1 triggers the excision of the pseudo-Mos1 from the plasmid producing two linear DNA fragments, the transposon and the plasmid backbone, together with intermediate products (open circle plasmids which contained single strand nicks and linear plasmids which contained a double strand nick at one ITR). After excision, the transposon could be reintegrated, making it difficult to detect in electrophoresis. The activity of the molecules was measured by quantifying the plasmid backbone, the end product of the reaction. The assays were performed with final concentrations of 25 and 10 µM molecules. Controls correspond to assays performed without molecule but with DMSO. […] Reactions were performed at least twice for each selected molecules (leachianol G, leachianol F, quadrangularin A, hopeaphenol, vitisin B and pallidol) and the excision activity is reported in figure 7B . […] The six selected molecules were then tested for the integration step of Mos1 transposition.

The target of a further assay is T2, MOS1 (Drosophila mauritiana, UniProt Q7JQ07).
T2 construct: involving the full-length Mos1 transposase (MOS1) was recently solved; made in house
T2 sequence (Q7JQ07 whole entry): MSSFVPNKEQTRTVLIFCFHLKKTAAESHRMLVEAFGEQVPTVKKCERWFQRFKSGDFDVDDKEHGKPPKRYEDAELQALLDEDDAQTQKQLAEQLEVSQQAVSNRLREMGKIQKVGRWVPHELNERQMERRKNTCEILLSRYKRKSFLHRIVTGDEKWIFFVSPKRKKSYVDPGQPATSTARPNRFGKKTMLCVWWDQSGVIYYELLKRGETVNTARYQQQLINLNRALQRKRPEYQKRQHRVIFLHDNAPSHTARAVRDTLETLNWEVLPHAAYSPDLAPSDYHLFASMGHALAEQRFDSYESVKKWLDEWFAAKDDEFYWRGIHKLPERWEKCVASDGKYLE
Put plainly: MOS1 in vitro activities, overall statements of the discussion. It is filed as biochemical, D. mauritiana. The conditions noted are these: for activity on MOS1: in vitro assays of MOS1 activities, discussion. The method, then: In vitro transposition reactions were performed using pBC-3T3 as both the donor DNA and the target, as previously described. Briefly, the basic transposition reaction mixtures contained 10 mM Tris-HCl (pH 9), 50 mM NaCl, 20 mM MgCl2, 0.5 mM EDTA, 5% glycerol, 5 ng/ml BSA, 600 ng pBC-3T3, and 80 nM purified MBP-MOS1 (added last) in a volume of 20 µl. Inhibitors (25 or 10 µM, as specified) or DMSO (2%) were added to the reaction mixtures before the transposase. The reactions were allowed to proceed for 30 min at 30°C. After phenol-chloroform extraction and ethanol precipitation, 10% of the reaction mixture was transformed in electro-competent JM109 E. coli (2 mm cuvette, 1.5 kV in a MicroPulser™BioRad). Appropriate dilutions of each reaction mixture were plated on LB-tetracycline (12.5 µg/ml) agar and LB-chloramphenicol (80 µg/ml) agar to score the transposition rate. The transposition rate was the number of Tet^R colonies divided by the number of Chloram^R plus Tet^R colonies. Each condition was done at least three times in independent experiments.
as §1
These assays were performed using pre-cleaved 3′ITRs (PC-ITR), i.e. ITRs in the configuration expected after excision. Double-strand ITRs were obtained by annealing equimolar amounts of 70-NTS-PN (5′[…]3′) and 70-TS-PC (5′[…]3′) single-strand oligonucleotides. Prior to annealing, the transferred strand (70-TS-PC) was 5′-end labelled using T4 polynucleotide kinase (Promega) and γ-^32P-ATP following the manufacturer's instructions. Oligonucleotides were provided by Eurofins MWG Biotech (Germany) or Eurogentec (Belgium). Reaction mixtures containing 10 mM Tris-HCl (pH 9), 50 mM NaCl, 1 mM DTT, 5% glycerol, 100 ng BSA, 100 nM of labelled PC-ITR and 100 nM MBP-MOS1 in a final volume of 20 µl were incubated at 30°C for 30 min. The pBC plasmid (which contained the cat gene, a hot-spot for Mos1 insertion) was then added to 30 ng/µL along with 5 mM MgCl2. Molecules (25 or 10 µM, as specified) or DMSO (2%) were added to the reaction mixtures along with the target DNA to estimate their effect on integration. Reactions were carried out for 3 hours at 30°C. 0.1 mg/ml proteinase K and 0.1% SDS were added to stop the reaction. DNA products were purified by phenol-chloroform extraction and ethanol precipitated using standard techniques. DNA products were resuspended in DNA loading buffer, then separated onto a 1% agarose gel in 1X TAE (Tris Acetate EDTA) buffer. The gel was dried onto a nitrocellulose membrane (Hybond N+, GE Healthcare), scanned using a Storm, and analysed with ImageQuant software. Signals were quantified using ImageQuant software. Efficiency of integration was calculated as the intensity of the integration signal divided by the intensity of free target signal plus integration signal. Each condition was tested at least twice.
All molecules were also tested in in vitro assays reproducing integration and excision reactions catalysed by MOS1. […] In contrast, E-resveratrol and E-ε-viniferin glucoside, which act more specifically on HIV-1 3′processing reaction, and E-piceid and E-pterostilbene, which is more efficient on the integration reaction, were not active on MOS1.

Bounds are passed on as bounds.

What is called inhibition is how much of the control response was suppressed. What is called IC50 is the midpoint of a concentration-inhibition curve. A lower IC50 goes with higher potency.

T1 sequence (Q7JQ07 whole entry): as above

For the molecule `Oc1ccc([C@@H]2c3c(O)cc(O)cc3[C@H]3[C@H](c4ccc(O)cc4)c4c(O)cc(O)cc4[C@@H]23)cc1` [pallidol], at Mos1 transposase (MOS1), the inhibition at 25 µM is greater than 50% and the half-maximal inhibitory concentration (IC50) was found to be 8 µM. The “activity on MOS1” value at MOS1 is on record as “also active against MOS1 activities”.

Turning to `Oc1ccc([C@@H]2c3c(O)cc(O)cc3[C@H]3c4c(cc(O)cc4C2C2c4cc(O)cc5c4[C@H](c4cc(O)cc(O)c4[C@H]2c2ccc(O)cc2)[C@@H](c2ccc(O)cc2)O5)O[C@@H]3c2ccc(O)cc2)cc1` (stereo partly shown) [hopeaphenol], on Mos1 transposase (MOS1), the inhibition at 25 µM was greater than 50% and the IC50 came to 8.5 µM. In addition, the “activity on MOS1” value at MOS1 was “selectively active on MOS1”. The same molecule gave an IC50 against MOS1 (summary of the discussion) of 6 to 8 µM.
